Assay: Human HepG2 cell viability assay in 384 well format
Assay type: toxicity, cell-based
Parameters: dose 125 nL, time 70.5 hour; cytotoxicity at 70.5 h: concentration not given beside the values
Details: HepG2 cells, read-out: Inhibition

SMILES	cytotoxicity at 70.5 h
CCS(=O)(=O)N1CCc2ccc(NC(=O)Nc3cccc(C#N)c3)cc21	17.6%
COC(=O)c1cccc(C(=O)N2CCN(c3ccc(Cl)cc3)CC2)n1	-6.13%
COC(=O)c1cccc(C(=O)N2CCN(c3ccc(OC)cc3)CC2)n1	-7.54%
O=C(Cc1ccsc1)NCC1Cn2nnc(-c3ccoc3)c2CO1 (stereo not drawn)	-4.44%
COc1ccc(CC(=O)N2CCc3nc(C(=O)N(C)C)sc3CC2)cc1	-4%
CC(C)N(C)Cc1nnc2n1CCCN(C(=O)C1CCCO1)C2 (stereo not drawn)	-7.64%
O=C(C1CCCO1)N1CCCn2c(nnc2Cn2cccn2)C1 (stereo not drawn)	-10.9%
CCC(=O)N1CCc2nc(N3CCOCC3)nc(N(C)C)c2CC1	35.1%
CCCS(=O)(=O)N1CCC2(CC1)COCCN(C(C)=O)C2	-4.27%
O=C(Nc1cnccn1)[C@@H]1C[C@H]2OCC[C@H]2N(c2ncc(F)cn2)C1	18%
CCn1cc2c(n1)C(COCC1CC1)CN(C(=O)c1ccsc1)C2 (stereo not drawn)	-10.1%
CCCS(=O)(=O)N1CCOC2(COCCN(C(C)=O)C2)C1 (stereo not drawn)	-8.79%
CC1CN(Cc2cnn(C)c2)CCN1c1ccc2nncn2n1 (stereo not drawn)	-14.4%
Cc1nnc2n1CCN(C(=O)c1cc3cc(F)ccc3[nH]1)C2	-12.8%
Cc1nc(CN2CCCC(NCc3csc(C(C)(C)C)n3)C2)no1 (stereo not drawn)	-6.65%
CC(C)c1nnc2n1CCN(C(=O)c1cc3cc(F)ccc3[nH]1)C2	-16.2%
CN1CCN(C2CCN(CCOc3cccc(F)c3)CC2)C1=O	-13%
CCc1nc(CC(=O)N2CCCC2c2c(C)nn(C)c2OC)cs1 (stereo not drawn)	-8.39%
Cc1ccc(OCC(=O)N2CCCC(n3nc(C)nc3C)C2)cc1 (stereo not drawn)	-8.6%
Cc1ccc(OCCC(=O)N2CCCC(n3nc(C)nc3C)C2)cc1 (stereo not drawn)	-11.7%

SMILES	cytotoxicity at 70.5 h
COc1c(C2CCCN2C(=O)c2cccc(C)n2)c(C)nn1C (stereo not drawn)	-16.2%
CC1CN(Cc2cccnc2)CCN1c1ccc2nncn2n1 (stereo not drawn)	-8.86%
O=C(Cc1ccccc1)NCCNCc1cccc(O)c1	36.6%
CN(C)C(=O)c1cccc(CN2CCOC(Cn3cncn3)C2)c1 (stereo not drawn)	-4.81%
COc1ccc(-n2ccc(C(=O)NCCN3CCCC(C)C3)n2)cc1 (stereo not drawn)	23.3%
c1cnn(CC2CCCN2Cc2noc(C3CC3)n2)c1 (stereo not drawn)	-3.73%
CCc1csc(C2CCCN(C(=O)c3ccccn3)C2)n1 (stereo not drawn)	-7.06%
c1ccc(Oc2ccc(CNCC3CNc4ccnn4C3)cn2)cc1 (stereo not drawn)	-9.82%
Clc1cccc(-c2nc(CNC3CCc4ncnn4C3)co2)c1 (stereo not drawn)	11.6%
O=C1CN(c2ccc(CNC(=O)NCc3ccoc3)cc2)CCN1	-11.8%
CC(C)C(NC(=O)NCCNc1ncccn1)c1cccs1 (stereo not drawn)	-6.23%
O=C(NCCN1CCCCC1)c1ccn(-c2ccccc2)n1	24.7%
O=C(Cc1cccc(F)c1)NCCCNC(=O)c1cccc(O)c1	-2.95%
COc1ccc(OC2CCN(Cc3ccn(C)c(=O)c3)CC2)cc1	0.479%
COc1ccccc1CNC(=O)C[S+]([O-])Cc1cc(C)on1 (stereo not drawn)	-3.68%
Clc1ccccc1-c1nc(CNC2CCc3ncnn3C2)co1 (stereo not drawn)	-2.04%
CCc1csc(C2CCCN(C(=O)c3ncccn3)C2)n1 (stereo not drawn)	-0.847%
CC(C(=O)NCc1ccc(N2CCNC(=O)C2)cc1)c1cccs1 (stereo not drawn)	-4.67%
COC(=O)c1cccc(S(=O)(=O)NC(=O)COC2CCCCC2)c1	-3.15%
COc1ccc(S(=O)(=O)NC(=O)COC2CCCC2)cc1	-5.57%

SMILES	cytotoxicity at 70.5 h
Cc1nc(C)n(CC2CCCN(Cc3ncc(C(C)(C)C)o3)C2)n1 (stereo not drawn)	23%
CCn1cnnc1CNC(=O)N1CCN(c2nccs2)CC1	-3.76%
CC(NC(=O)CCn1cccn1)c1ccc2c(c1)OCCO2 (stereo not drawn)	14.2%
CCn1cnnc1CNC(=O)N1CCN(c2ccccc2Cl)CC1	-3.38%
CCn1cnnc1CNC(=O)N1CCN(c2ccc(OC)cc2)CC1	-11.7%
Cc1cc(C(=O)N2CCCC2)ccc1NCc1nc(CC(C)C)no1	-9.73%
CCn1cnnc1CNC(=O)N1CCN(c2ccccc2O)CC1	-13.9%
Cc1ccccc1-c1noc(CN2CCC(N3CCNC3=O)CC2)n1	40.4%
Cc1cc(C)n(CC2CN(CC(=O)N3CCC3)CCO2)n1 (stereo not drawn)	-13.4%
Cc1cc(C)n(CC2CN(CC(=O)N3CCNC3=O)CCO2)n1 (stereo not drawn)	-1.37%
O=C(c1ccccc1Cl)N1CCN(CCc2ccccn2)CC1	-5.74%
COCCN1CC[C@H]2CN(c3cc(OC)ncn3)C[C@@H]2C1=O	24.4%
CC[C@@H]1N(CC2CC2)CCC[C@]12CCC(=O)N2	-1.41%
Cc1nc2c(c(NC(C)C)n1)CCN(C1CCOCC1)CC2	2.46%
CN(C)C(=O)Cn1c2c(ccc1=O)CC(NCc1ccoc1)CC2 (stereo not drawn)	1.44%
COCCN1CCCC12CCN(Cc1cccnc1OC)CC2	31.2%
COCCCN1CCCC12CCN(Cc1cccnc1OC)CC2	1.58%
OCCN1CC2(CCN(CC3CC3)CC2)c2ccccc21	4.7%
